Assay results published in patent publication US12492184B2, “Heteroaryl compounds, preparation methods and uses thereof” (InventisBio Co., Ltd., priority 2020, dated 2025).

tested on: HEK-Blue IL23 Reporter; assay: HEK-Blue IL-23 STAT3 Reporter Assay; assay type: cell-based, human; conditions: HEK-Blue IL23 cells stimulated with IL-23 overnight; SEAP read with QUANTI-Blue at OD655
Procedure: HEK-Blue IL23 cells (InvivoGen catalog #HKB-IL23) are designed for the detection of bioactive IL-23 by monitoring the activation of the STAT3 pathway. They were generated by stably introducing the genes for the human IL-23 receptor, STAT3, and the SEAP (secreted embryonic alkaline phosphatase) reporter gene into human HEK293 cell line.
Briefly, around 50,000 cells in DMEM medium supplemented with 10% heat inactivated FBS (˜180 ul) were seeded into each well and incubate for 48 hours at 37° C. with 5% CO2 in air. On day 3, one microliter of compound and 20 ul IL-23 were transferred to the assay plate respectively. The plate was left in the 37° C. incubator overnight. Two microliter of cell supernatant was transferred to a 384-well plate, and 18 ul of resuspended QUANTI-Blue solution was added to each well. SLAP levels were determined using Tecan Spark at OD655.
Cells with no IL23 added were used as Low control. Cells stimulated with IL23 were used as High control. Inhibition rate was calculated with the formula of % inhibition=100*(High control−Treated Well)/(High Control−Low control). IL-23 reporter assay inhibition IC50 was calculated with the equation of Y=Bottom+(Top-Bottom)/(1+10^((Log IC50−X)*HillSlope)).

SMILES | IC50
[2H]C([2H])([2H])NC(=O)c1nnc(NC(=O)[C@H]2CC23CC3)cc1Nc1nccc2c1S(C)(=O)=NC2 (stereo partly shown) [Compound 130] | 59.9 nM
[2H]C([2H])([2H])NC(=O)c1nnc(NC(=O)N2CCCC2)cc1Nc1nccc2c1S(C)(=O)=NC2 (stereo not shown) [Compound 92] | ≥ 1000 nM
[2H]C([2H])([2H])NC(=O)c1nnc(NC(=O)C2CCCC2)cc1Nc1nccc2c1S(C)(=O)=NC2 (stereo not shown) [Compound 91] | ≥ 1000 nM
[2H]C([2H])([2H])NC(=O)c1nnc(NC(=O)[C@H]2CC23CC3)cc1Nc1nccc2c1S(C)(=O)=NC2 (stereo partly shown) [Compound 129] | 0.4 nM
[2H]C([2H])([2H])NC(=O)c1nnc(NC(=O)N2CCCC2)cc1Nc1nccc2c1S(C)(=O)=NC2 (stereo not shown) [Compound 93] | 13.6 nM

same assay, conditions: Homo sapiens, HEK-Blue IL-23, HEK-Blue IL23 cells stimulated with IL-23 overnight; SEAP read with QUANTI-Blue at OD655

SMILES | IC50
[2H]C([2H])([2H])NC(=O)c1nnc(NC(=O)[C@H]2CC23CC3)cc1Nc1ncc(C2CC2)cc1S(C)(=O)=O [Compound 5] | 1.7 nM
[2H]C([2H])([2H])NC(=O)c1nnc(NC(=O)[C@H]2CC23CC3)cc1Nc1ncc(C2(F)COC2)cc1S(C)(=O)=O [Compound 109] | 284 nM
[2H]C([2H])([2H])NC(=O)c1nnc(NC(=O)[C@H]2CC23CC3)cc1Nc1ncc(O[C@H](C)COC)cc1S(C)(=O)=O [Compound 115] | 3.5 nM
[2H]C([2H])([2H])NC(=O)c1nnc(NC(=O)[C@H]2CC23CC3)cc1Nc1ncc(OC2COC2)cc1S(C)(=O)=O [Compound 110] | 2.7 nM
[2H]C([2H])([2H])NC(=O)c1nnc(NC(=O)C2CC23CC3)cc1Nc1nccc2c1S(C)(=O)=NC2 (stereo not shown) [Compound 8] | 2.6 nM
[2H]C([2H])([2H])NC(=O)c1nnc(NC(=O)[C@H]2CC23CC3)cc1Nc1ncc(OC(F)F)cc1S(C)(=O)=O [Compound 106] | 3.6 nM
[2H]C([2H])([2H])NC(=O)c1nnc(NC2CC2)cc1Nc1ncccc1S(C)(=O)=O [Compound 22] | 106 nM
[2H]C([2H])([2H])NC(=O)c1nnc(NC(=O)C2CC2)cc1Nc1nc(C2CC2)sc1S(C)(=O)=O [Compound 83] | 7.4 nM
[2H]C([2H])([2H])NC(=O)c1nnc(NC(=O)C2CC2)cc1Nc1ncc(OC(C)C)cc1S(C)(=O)=O [Compound 64] | 0.6 nM
CS(=O)(=O)c1cccnc1Nc1cc(NC(=O)C2CC23CC3)ncc1C(=O)C1CC1 (stereo not shown) [Compound 12] | 140 nM
[2H]C([2H])([2H])NC(=O)c1nnc(NC(=O)C(C)C)cc1Nc1ncc(OC)cc1S(C)(=O)=O [Compound 18] | 38.9 nM
[2H]C([2H])([2H])NC(=O)c1nnc(NC(=O)[C@H]2CC23CC3)cc1Nc1ncc(OC[C@H](C)OC)cc1S(C)(=O)=O [Compound 112] | 2.7 nM
[2H]C([2H])([2H])NC(=O)c1nnc(NC(=O)C2CC23CC3)cc1Nc1ncc(F)cc1S(C)(=O)=O (stereo not shown) [Compound 3] | 7.1 nM
[2H]C([2H])([2H])NC(=O)c1nnc(NC(=O)[C@H]2CC23CC3)cc1Nc1ncc(C(F)(F)F)cc1S(C)(=O)=O [Compound 32] | 5.3 nM
[2H]C([2H])([2H])NC(=O)c1nnc(NC(=O)NC2CC2)cc1Nc1ncc(OC)cc1S(C)(=O)=O [Compound 51] | 6.2 nM
[2H]C([2H])([2H])NC(=O)c1nnc(NC(=O)c2ccn(C)n2)cc1Nc1ncc(OC)cc1S(C)(=O)=O [Compound 30] | 440 nM
[2H]C([2H])([2H])NC(=O)c1nnc(NC(=O)[C@@H]2CC23CC3)cc1Nc1ncc(OC)cc1S(C)(=O)=O [Compound 2] | 4.3 nM
[2H]C([2H])([2H])NC(=O)c1nnc(NC(=O)[C@H]2CC23CC3)cc1Nc1ncc(C(C)(C)O)cc1S(C)(=O)=O [Compound 120] | 14.7 nM
[2H]C([2H])([2H])NC(=O)c1nnc(Nc2cnc(C(C)(C)O)nc2)cc1Nc1ncc(OC)cc1S(C)(=O)=O [Compound 50] | 9.3 nM
[2H]C([2H])([2H])NC(=O)c1nnc(NC(=O)OC)cc1Nc1ncccc1S(C)(=O)=O [Compound 24] | 25.4 nM
[2H]C([2H])([2H])NC(=O)c1nnc(NC(=O)C2CC2)cc1Nc1ncc(C)cc1S(C)(=O)=O [Compound 48] | 0.46 nM
[2H]C([2H])([2H])NC(=O)c1nnc(NC(=O)[C@H]2CC23CC3)cc1Nc1nc2c(cc1S(C)(=O)=O)CN(C)CC2 [Compound 41] | 12.7 nM

SMILES | IC50
[2H]C([2H])([2H])NC(=O)c1nnc(NC(=O)C2CC2)cc1Nc1nc(C)sc1S(C)(=O)=O [Compound 71] | 5.4 nM
[2H]C([2H])([2H])NC(=O)c1nnc(NC(=O)[C@H]2CC23CC3)cc1Nc1ncc(N2CCOC[C@@H]2C)cc1S(C)(=O)=O [Compound 122] | 16.1 nM
[2H]C([2H])([2H])NC(=O)c1nnc(-c2cc(C)n[nH]2)cc1Nc1ncccc1S(C)(=O)=O [Compound 25] | ≥ 1000 nM
[2H]C([2H])([2H])NC(=O)c1nnc(NC(=O)C2CC2)cc1Nc1nc(C)c(F)cc1S(C)(=O)=O [Compound 72] | 1.6 nM
COC(=O)Nc1cc(Nc2ncccc2S(C)(=O)=O)c(C(N)=O)nn1 [Compound 23] | 58.5 nM
[2H]C([2H])([2H])NC(=O)c1nnc(NC(=O)[C@H]2CC23CC3)cc1Nc1nc2c(cc1S(C)(=O)=O)CNCC2 [Compound 40] | 54.4 nM
[2H]C([2H])([2H])NC(=O)c1nnc(NC(=O)[C@H]2CC23CC3)cc1Nc1ncc(N2CC(F)(F)C2)cc1S(C)(=O)=O [Compound 124] | 1.9 nM
[2H]C([2H])([2H])NC(=O)c1nnc(NC(=O)NC2CCC2)cc1Nc1ncc(OC)cc1S(C)(=O)=O [Compound 88] | 0.6 nM
[2H]C([2H])([2H])NC(=O)c1nnc(NC(=O)[C@H]2[C@@H]3COC[C@@H]32)cc1Nc1ncc(OC)cc1S(C)(=O)=O [Compound 37] | 10.2 nM
[2H]C([2H])([2H])NC(=O)c1cnc(NC(=O)C2CC2)cc1Nc1ncc(Cl)cc1S(C)(=O)=O [Compound 80] | 1.5 nM
[2H]C([2H])([2H])NC(=O)c1cnc(NC(=O)[C@@H]2CC23CC3)cc1Nc1ncc(C2CC2)cc1S(C)(=O)=O [Compound 118] | 0.6 nM
[2H]C([2H])([2H])NC(=O)c1nnc(NC(=O)C2CC2)cc1Nc1ncc(C(F)F)cc1S(C)(=O)=O (single isomer, unassigned) [Compound 58] | 2.7 nM
[2H]C([2H])([2H])NC(=O)c1nnc(NC(=O)[C@H]2CC23CC3)cc1Nc1ncc(N2CC(F)C2)cc1S(C)(=O)=O [Compound 128] | 1 nM
[2H]C([2H])([2H])NC(=O)c1cnc(NC(=O)C2CC2)cc1Nc1ncc(OC(C)C)cc1S(C)(=O)=O [Compound 81] | 0.9 nM
[2H]C([2H])([2H])NC(=O)c1nnc(C(F)F)cc1Nc1ncccc1S(C)(=O)=O [Compound 49] | > 1000 nM
[2H]C([2H])([2H])NC(=O)c1cnc(NC(=O)C2CC2)cc1Nc1ncc(F)cc1S(C)(=O)=O (single isomer, unassigned) [Compound 55] | 1.5 nM
[2H]C([2H])([2H])NC(=O)c1nnc(NC(=O)C2CC2)cc1Nc1ncc(C2CC2)cc1S(C)(=O)=O [Compound 46] | 0.2 nM
[2H]C([2H])([2H])NC(=O)c1nnc(NC(=O)[C@H]2CC23CC3)cc1Nc1ncc(OC)cc1S(C)(=O)=O [Compound 26] | 2.3 nM
[2H]C([2H])([2H])NC(=O)c1nnc(NC(=O)[C@H]2CC23CC3)cc1Nc1nscc1S(C)(=O)=O [Compound 103] | 5.7 nM
[2H]C([2H])([2H])NC(=O)c1nnc(NC(=O)C2CC2)cc1Nc1ncc(OC[C@@H](C)OC(F)F)cc1S(C)(=O)=O [Compound 75] | 1.6 nM
[2H]C([2H])([2H])NC(=O)c1nnc(NC(=O)C2CC2)cc1Nc1ncc(OC[C@@H](C)OC=O)cc1S(C)(=O)=O [Compound 76] | 2.5 nM
[2H]C([2H])([2H])NC(=O)c1nnc(NC(=O)C2CC2)cc1Nc1ncc(OCCN(C)C)cc1S(C)(=O)=O [Compound 61] | 19.9 nM
